Experimental data: patent US3941790A, “Bis diketopiperazines” (National Research Development Corporation, priority 1967, dated 1976)
In brackets after ≈: the same amount, converted by molar mass.

How the values were obtained:
[1] = test system: tumours and other forms of cancer; assay: anti-cancer / biological activity, general statement; conditions: for biological activity of d and l forms compared with racemic dl mixture: each substantially free from the other and from the dl form
Sarcoma 180 (S180) = assay: implanted tumor Sarcoma 180, mean tumor weight; assay type: in vivo, mice
Experimental: (§1) ii. Mice having implanted tumors Sarcoma 180 and Adenocarcinoma 755, and rats having the implanted tumor Walker 256, are treated with 1,2-bis(3,5-dioxopiperazin-1-yl) ethane. The compound is administered by intraperitoneal injection of a suspension of the substance in isotonic saline containing 1/2% (w/v) carboxymethyl cellulose. The mice are dosed with 30 mg. of active substance per kilo daily for 5 out of 8 days, and their tumors are exercised and weighed. The rats are given one dose only of 400 mg. per kilo and maintained without further treatment for 8 days when their tumors are also removed and weighed. Compared with control animals typical Treated/Control values of mean tumor weight for the S180 and Ca 755 tumors are in the range of 5-10%, and for the Walker tumors of the order of 20%.
iii. In tests with tumor S180 similar to those described under (ii) typical Treated/Control values of mean tumor weight for dl-1,2-bis(3,5-dioxopiperazin-1-yl) butane and meso-2,3-bis(3,5-dioxopiperazin-1-yl) butane are 84% at 30 mg./Kg. and 22% at 0.25 mg./Kg. respectively.

leukemia L1210 [2] = assay: leukemia L1210 implanted mice, survival time; assay type: in vivo; conditions: for Treated/Control value of survival time, L1210: similar to (ii)
Experimental: Mice implanted with leukemia L1210 are treated as described above with 30 mg. of active substance per kilo for a continuing period until all the animals succumb.

[3] = test system: secondary mouse fibroblast cultures; assay: inhibition of 3H-thymidine incorporation (rate of DNA synthesis) in mammalian cell cultures; assay type: cell-based; conditions: 22 hours incubation; for inhibition at 1 µg/mL: 1 μg./ml.; for inhibition at 3 µg/mL: 3 μg./ml.; for inhibition at 0.3 µg/mL: 0.3 μg./ml.; for inhibition at 200 µg/mL: 200 μg./ml.
Experimental: The overall effects of various compounds on the rate of synthesis of DNA is mammalian cell cultures are determined with the method of Birnie and Simons (Experimental Cell Research, 1967, 46, 355) by measuring the changes in the amount of ^3 H-thymidine incorporated in 1 hour by secondary mouse fibroblast cultures which have been incubated with a particular compound for 22 hours.
Typical results illustrating the degree of inhibition of ^3 H-thymidine incorporation for the treated fibroblasts as compared with untreated fibroblasts are given in Table I. The results obtained can be regarded as a measure of cytotoxicity and correlate well with results obtained with implanted tumors in mice.

leukemia L1210 [4] = assay: leukemia L1210 ascites cells injected intraperitoneally, survival and non-takes (Table II); assay type: in vivo, mice; conditions: daily i.p. 40 mg./Kg.; for Non-takes: groups of 10 mice, 10% DMSO control 1/10; for Mean survival days: 10% DMSO control 10.1; for Survival days: individual mice
Experimental: v. A suspension of leukaemic cells from DBA2 mice heavily infected with leukemia L1210 is obtained by removing ascites from the peritoneal cavity. The ascitic fluid is diluted in saline and injected intraperitoneally at a level of 10^6 cell into groups of BDFi females.
Stock solutions of each of the dl, d and l isomers of 1,2-bis(3,5-dioxopiperaxin-1-yl)propane in dimethylsulphoxide (DMSO) are prepared and kept frozen. The solutions are thawed each morning and an aliquot diluted 10-fold with saline. Daily intraperitoneal injections of the three diluted solutions into groups of 10 mice are started on the day after innoculation of the leukaemic cells at a daily dosage level of 40 mg./Kg. (equivalent to 0.5 to 1.0 ml of solution per injection). A control group of mice is injected daily with a similar volume of 10% DMSO in saline.
In general, the deaths of mice in any group occur within a few days of each other. If one or more members of a group survive 5 days longer than any other of their companions, injections are stopped and if these mice survive a further 5 days they are classed as failures of transplantation. This is merely an objective criterion of a situation which is visually obvious; the "non-Takes" typically looking sleek and healthy and having no tumor at the inoculation site nor having their bellies swollen with ascitic fluid.

[5] = survival and weight gain of treated S180 tumor-bearing mice; assay type: in vivo; conditions: fed at 30 mg./Kg. on 5 out of 8 days
leukemia L1210 [6] = assay: inter-cerebrally implanted leukemia L1210; assay type: in vivo
[7] = test system: lymphosarcomas, fibrosarcomas, carcinomas, lymphoblastic leukemias and Hodgkin's disease; assay: trials in human patients with various forms of cancer; assay type: in vivo; conditions: some previously treated unsuccessfully with other drugs or radiotherapy
[8] = stability of aqueous salt solutions; assay type: physicochemical; conditions: acid solution plus disodium hydrogen phosphate, pH 5.7; injection within 1 hour of preparation recommended
Experimental: When the compounds are to be formulated as salts, preferred formulations are prepared with methane sulphonic acid, isethionic acid, tartaric acid and other solubilizing acids. Salts thus formed are frequently difficult to isolate in view of the weak basicity of some of the parent compounds but their aqueous solutions, after adjustment to physiologically acceptable pH with buffers, are stable for extended periods of time. Solutions of similar strength, i.e., 0.5% (w/v), are also obtainable with hydrochloric acid.
iv. The product of Example 2 (0.548 g.) is added to 5 ml. of a 0.4N solution of (1) hydrochloric acid, (2) isethionic acid, (3) methane sulphonic acid, or (4) tartaric acid, and the mixture is made up to 100 ml. by the addition of water. The solution so obtained is added to an aqueous solution of disodium hydrogen phosphate (0.2M, 10 ml.) to provide a stable solution having a pH of 5.7. Injection of the solution within 1 hour of preparation is recommended.

physchem = conditions: water
Excerpt: Although the invention is restricted to one stereoisomeric form as far as certain compounds are concerned, others can exist in different stereoisomeric forms, thus the cyclo-butane analogue (I,R1 R2 = C2 H4) can exist in a trans form and also a cis form.

[9] = test system: Adenocarcinoma 755 (Ca 755); assay: implanted tumor Adenocarcinoma 755, mean tumor weight; assay type: in vivo; conditions: mice, i.p., 30 mg. per kilo daily for 5 out of 8 days
Experimental: as §1

Walker 256 = assay: implanted tumor Walker 256, mean tumor weight; assay type: in vivo; conditions: rats, i.p., one dose of 400 mg. per kilo, 8 days
Experimental: as §1

metastases = assay: inhibition of metastases; conditions: in vivo

O=C(O)CN(CCN(CC(=O)O)CC(=O)O)CC(=O)O [ethylene diamine tetra-acetic acid, reference compound]
anti-cancer activity, in words [1]: lack of activity

C[C@H]([C@H](C)N1CC(=O)NC(=O)C1)N1CC(=O)NC(=O)C1 [meso-2,3-bis(3,5-Dioxopiperazin-1-yl)butane]
Treated/Control value of mean tumor weight, S180 (Sarcoma 180 (S180); 0.25 mg./Kg., similar to (ii)): 22%
Treated/Control value of survival time, L1210 (leukemia L1210 [2]; 0.25 mg./Kg.): 165%
inhibition at 0.002 µg/mL ([3]; 0.002 μg./ml.): 19%
inhibition at 0.01 µg/mL ([3]; 0.01 μg./ml.): 72%
inhibition at 1 µg/mL [3]: 78%
anti-cancer activity, in words [1]: significant activity

O=C1CN([C@@H]2CC[C@H]2N2CC(=O)NC(=O)C2)CC(=O)N1 (relative stereo) [trans-1,2-bis(3,5-Dioxopiperazin-1-yl)cyclobutane]
inhibition at 3 µg/mL [3]: 22%
inhibition at 67 µg/mL ([3]; 67 μg./ml.): 60%

CC(CN1CC(=O)NC(=O)C1)N1CC(=O)NC(=O)C1 (racemic) [dl-1,2-bis(3,5-Dioxopiperazin-1-yl)propane]
Treated/Control value for mean tumor weight, S180 (Sarcoma 180 (S180); mice, fed at 30 mg./Kg. on 5 out of 8 days): 7%
Treated/Control value for survival time, L1210 (leukemia L1210 [2]; intraperitoneal, 30 mg./Kg. daily until death): 257%
Treated/Control value for survival time, L1210 (leukemia L1210 [2]; orally, 75 mg./Kg.): 157%
Treated/Control value for survival time, L1210 (leukemia L1210 [2]; subcutaneous, 30 mg./Kg. daily until death): 223%
% Increase of survival time over controls (leukemia L1210 [4]): 86%
Non-takes (leukemia L1210 [4]): 0/10
Mean survival days (leukemia L1210 [4]): 18.8 days
Survival days (leukemia L1210 [4]; listed as dl-): 25 days
survival of animals [5]: all the animals surviving
weight gain ([5]; controls 29%): 12%
effectiveness against inter-cerebrally implanted leukemia L1210 (leukemia L1210 [6]; in vivo): effective
ability to cross the blood-brain barrier (leukemia L1210 [6]; indicated by effect on inter-cerebrally implanted L1210): indicative of the ability of the compound to cross the blood-brain barrier
regression and palliation of cancers in patients [7]: significant regression and palliation of the cancers
inhibition at 0.3 µg/mL [3]: 15%
inhibition at 1 µg/mL [3]: 48%
inhibition at 5 µg/mL ([3]; 5 μg./ml.): 63%
stability of solution [8]: stable
solubility (physchem): ~1000 µg/mL (≈ 3.73 mM)

C[C@H]([C@@H](C)N1CC(=O)NC(=O)C1)N1CC(=O)NC(=O)C1 (relative stereo) [dl-2,3-bis(3,5-dioxopiperazin-1-yl)butane, reference compound]
Treated/Control value of mean tumor weight, S180 (Sarcoma 180 (S180); 30 mg./Kg., similar to (ii)): 84%
Treated/Control value of survival time, L1210 (leukemia L1210 [2]; 30 mg./Kg.): 80%
inhibition at 3 µg/mL [3]: 3%
inhibition at 13 µg/mL ([3]; 13 μg./ml.): 26%
anti-cancer activity, in words [1]: essentially inactive

C[C@@H](CN1CC(=O)NC(=O)C1)N1CC(=O)NC(=O)C1 [d-1,2-bis(3,5-Dioxopiperazin-1-yl)propane]
% Increase of survival time over controls (leukemia L1210 [4]): 93%
Non-takes (leukemia L1210 [4]): 0/10
Mean survival days (leukemia L1210 [4]): 19.5 days
Survival days (leukemia L1210 [4]; listed as d-): 26 days
inhibition at 1 µg/mL [3]: 44%
inhibition at 200 µg/mL [3]: 74%
biological activity of d and l forms compared with racemic dl mixture [1]: no substantial difference in biological activity

C[C@H](CN1CC(=O)NC(=O)C1)N1CC(=O)NC(=O)C1 [l-1,2-bis(3,5-Dioxopiperazin-1-yl)propane]
% Increase of survival time over controls (leukemia L1210 [4]): 99%
Non-takes (leukemia L1210 [4]): 0/10
Mean survival days (leukemia L1210 [4]): 20.1 days
Survival days (leukemia L1210 [4]; listed as l-): 26 days
inhibition at 1 µg/mL [3]: 52%
inhibition at 200 µg/mL [3]: 72%
biological activity of d and l forms compared with racemic dl mixture [1]: no substantial difference in biological activity
solubility (physchem): ~11000 µg/mL (≈ 41 mM)

O=C1CN(CCN2CC(=O)NC(=O)C2)CC(=O)N1 [1,2-bis(3,5-dioxopiperazin-1-yl)ethane, 1,2-bis(3,5-Dioxopiperazin-1-yl)ethane]
Treated/Control value of mean tumor weight, S180 (Sarcoma 180 (S180); mice, i.p., 30 mg. per kilo daily for 5 out of 8 days): 5-10%
inhibition at 0.3 µg/mL [3]: 21%
inhibition at 8 µg/mL ([3]; 8 μg./ml.): 69%
Treated/Control value of mean tumor weight, Ca 755 [9]: 5-10%
Treated/Control value of mean tumor weight, Walker (Walker 256): ~20%

CC(CN1CC(=O)NC(=O)C1)N1CC(=O)NC(=O)C1 (centres unmarked) [1,2-bis(3,5-dioxopiperazin-1-yl)propane]
inhibition of metastases (metastases): marked degree of inhibition of metastases
